# According to patent US20070270501A1, “Medicaments for Treating Barrett's Eesophagus” (Medical Research Council, priority 2004, published 2007):
# Entries after “also recorded” stand apart in the source; their conditions may differ.
# Columns and labels:
# [1] = system: CYP26A1 in squamous cell line (NES); assay: RT-PCR of CYP26A1 expression in squamous cells; format: cell-based; conditions: squamous cells / normal squamous epithelium
# Description: Expression of CYP26A1 in Barrett's (BAR, Qhtert) and squamous cell line (NES) is examined by RT-PCR. […] The control when nil is added is denoted by N. The LRAT is the enzyme for retinyl ester formation from excessive retinol.
# [2] = system: squamous oesophageal biopsies; assay: Ex vivo organ culture of squamous oesophageal biopsies with retinoic acid
# [3] = system: retinoid X receptor (RXR); conditions: cited from earlier work
# RAR = conditions: cited from earlier work
# [4] = system: Barrett's oesophagus biopsies; assay: Ex vivo organ culture of Barrett's oesophagus biopsies with citral; format: cell-based, human
# RARs = conditions: pan-RAR antagonist; read-out: Kd for binding to RARs; cited from earlier work
# [5] = retinoic acid transformed tissue compared with native counterpart
# [6] = citral transformed tissue compared with native counterpart
smiles,measurement,setting,value
"CC1=C(/C=C/C(C)=C/C=C/C(C)=C/C(=O)O)C(C)(C)CCC1 [retinoic acid, all-trans retinoic acid]",CYP26A1 expression / regulation,[1],not induced
same,squamous tissue with glandular phenotype (villiform surface and mucosal glands),"[2]; after 48 hours retinoic acid in culture, 8/31 explants",26%
same,epithelial markers by RT-PCR,[2]; full thickness squamous epithelial biopsy (NE),induced the glandular epithelial markers CK 8/18 and 7 with reduction of the squamous epithelial CK13
same,cytokeratin expression (immunohistochemistry),"[2]; retinoic acid induced glandular tissue, 48 hours",expresses cytokeratins CK8/18 and CK7 but not CK13
same,BrdU incorporation,[2]; [5],lack of BrdU incorporation
same,Ki-67 staining,[2]; [5],reduced Ki-67 staining
same,p21 expression,[2]; retinoic acid treated squamous tissue,enhanced p21 expression
same,villin (immunohistochemistry),[2]; retinoic acid treated tissue,strongly induced
CCCN1c2ccccc2N=C(c2ccc(C(=O)O)cc2)c2cc3c(cc21)C(C)(C)CCC3(C)C [HX603],RXR antagonistic activity,[3],selective antagonistic activity
"CC1(C)CCC(C)(C)c2cc3c(cc21)CCc1c(-c2ccc(C(=O)O)cc2)nn(Cc2cccnc2)c1-3 [compound 55, 4-[4,5,7,8,9,10-hexahydro-7,7,10,10-tetramethyl-1-(3-pyridylmethyl)anthra[2,1-d]pyrazol-3-yl]benzoic acid]",effectiveness of RAR antagonism,RAR,most effective
"CC1(C)CCC(C)(C)c2cc3c(cc21)SCc1c(-c2ccc(C(=O)O)cc2)cn(Cc2cccnc2)c1-3 [compound 40, 4-[4,5,7,8,9,10-hexahydro-7,7,10,10-tetramethyl-1-(3-pyridylmethyl)-5-thiaanthral[1,2-b]pyrrol-3-yl]benzoic acid]",effectiveness of RAR antagonism,RAR,most effective
CC1=C(/C=C/C(C)=C/C=C/C(C)=C/CO)C(C)(C)CCC1 [retinol],CYP26A1 expression / regulation,[1],not induced
"CC1(C)CCC(C)(C)c2cc3c(cc21)CCc1c(-c2ccc(C(=O)O)cc2)cn(Cc2cccnc2)c1-3 [compound 31, 4-[4,5,7,8,9,10-hexahydro-7,7,10,-10-tetramethyl-1-(3-pyridylmethyl)anthra[1,2-b]pyrrol-3-yl]benzoic acid]",effectiveness of RAR antagonism,RAR,most effective
"CC(C)=CCCC(C)=CC=O [citral, 3,7-dimethyl-2,6-octadienal]",CYP26A1 expression / regulation,[1],depression of CYP26A1 activity; also recorded: down-regulated
same,Barrett's explants with squamous phenotype,"[4]; after 48 h citral in culture, 5/10 explants",50%
same,BrdU incorporation,[4]; [6],lack of BrdU incorporation
same,Ki-67 staining,[4]; [6],reduced Ki-67 staining
same,cytokeratin expression (immunohistochemistry),"[4]; citral treated Barrett's explants, 48 h","expression of CK13 and CK14, but not CK8/18"
CCc1ccc(C2=CC(C)(C)Sc3ccc(C#Cc4ccc(C(=O)O)cc4)cc32)cc1 [AGN194310],Kd,RARs,2.5 nM
